Experimental data: US20060128702A1, “Heterocyclic and bicyclic compounds, compositions and methods” (priority 2004, published 2006)

How the values were obtained:
[1] = test system: IL-6 (interleukin-6) expression; assay: IL-6 ELISA (inflammation assay in HAECs); format: cell-based; conditions: endothelial cell media; TNFα (0.5 ng/mL) or glycated human serum albumin (300 μg/mL), 18-24 h; read-out: IC50, IL-6 enzyme-linked immunosorbent assay
Procedure: (§1) For inflammation assays, human aortic endothelial cells (HAECs) in 96 well plates were washed once with treatment medium (basal medium containing 1% FBS). Cells were treated with an inflammatory agent such as TNFα (0.5 ng/mL) or glycated human serum albumin (US Biologicals) as source of advanced glycation end products (AGEs) (300 μg/mL) for 18-24 h in the presence or absence of specified amount of compound. Cell supernatants were collected and used for measuring MCP-1 (monocyte chemoattractant protein 1) or IL-6 (interleukin-6) expression by ELISA. Cell layers were washed and used for determining vascular cell adhesion molecule-1 (VCAM-1) expression.
IL-6 expression in endothelial cell media were determined using DuaSet IL-6 ELISA kit from R&D Systems (Cat No DY206) as described by the manufacturer. Mouse anti-human IL-6 antibody was used as the capture antibody and biotinylated goat anti-human IL-6 was used as detection antibody. Culture medium was incubated with the capture antibody (in 96-well plate) for 2 h at room temperature. Wells were washed three times with wash buffer (0.05% Tween-20 in PBS) followed by incubation with detection antibody for 2 h at room temperature. The wells were then incubated with streptavidin HRP and color development was read at 450 nm in a microplate reader.

[2] = test system: MCP-1 (monocyte chemoattractant protein 1) expression; assay: MCP-1 ELISA (inflammation assay in HAECs); format: cell-based; conditions: Endothelial cell; HAEC supernatants; TNFα (0.5 ng/mL) or glycated human serum albumin (300 μg/mL), 18-24 h; read-out: IC50, MCP-1 enzyme-linked immunosorbent assay
Procedure: as §1
MCP-1 ELISA was carried out using Quantikine Human MCP-1 kit as described by the manufacturer (R&D Systems, Inc.). Mouse anti-human MCP-1 was used as the capture antibody and HRP (horse radish peroxidase)-conjugated goat anti-human MCP-1 antibody was used as detection antibody. Culture medium was incubated with the capture antibody (in 96-well plate) for 2 h at room temperature. Wells were washed three times with wash buffer (0.05% Tween-20 in PBS) followed by incubation with detection antibody for 2 h at room temperature. Color development was read at […] in a microplate reader.

[3] = test system: human aortic smooth muscle cells; assay: Smooth muscle cell proliferation assay; format: cell-based; conditions: human aortic SMC, growth medium containing serum, 24 h post treatment; for IC50: read-out: Effect: concentration giving 50% inhibition of smooth muscle cell proliferation
Procedure: Primary cultures of human aortic smooth muscle cells were obtained from Clonetics. SMC were initially grown in T-75 flasks prior to seeding in 96 well plates. The 96-well plates were seeded with 4000 cells/well. The following day cells were washed with serum free medium and left in serum free media for 24 hours for serum starvation. The next day cells received growth medium containing serum with or without compound. The 24 h post treatment cell proliferation was assayed either assessing the incorporation of radiolabeled thymidine to DNA or using a non-radioactive cell proliferation kit from Promega (CellTiter AQ).

[4] = test system: vascular cell adhesion molecule-1 (VCAM-1) expression; assay: VCAM-1 ELISA (inflammation assay in HAECs); format: cell-based; conditions: HAEC cell layers; TNFα (0.5 ng/mL) or glycated human serum albumin (300 μg/mL), 18-24 h; read-out: IC50, VCAM-1 enzyme-linked immunosorbent assay
Procedure: as §1
The cells were fixed cells with 100% methanol for 10 min at room temperature. The methanol was removed and the plate was air-dried. 100 μl of 1:1000 diluted primary antibody (polyclonal goat anti-human VCAM-1—R&D Systems #BBA19) was then added and incubated for 2 h at 37 C. The cells were washed with PBS and 100 μl of 1:5000 dilution of secondary antibody (rabbit anti-goat IgG-HRP—Zymed #81-1620) was added and incubated for 1 h at room temperature. Cells were washed and 100 μl of substrate solution (R&D Systems# DY999) was added and incubated for 20 min in the dark at room temp. 50 μl of stop solution (2N sulfuric acid) was added to the wells and absorbency at 450 nm was noted.

Structure (SMILES)	melting point	IC50 [2]	IC50 [4]	also measured
COc1ccc(Nc2cc(-c3ccncc3)nc3ccccc23)cc1Cl [E 1, (3-Chloro-4-methoxy-phenyl)-(2-pyridin-4-yl-quinolin-4-yl)-amine]	280 to 282 °C	–	–	–
COc1ccc(Nc2nc(-c3ccncc3)nc3ccccc23)cc1Cl [E 2, (3-Chloro-4-methoxy-phenyl)-(2-pyridin-4-yl-quinazolin-4-yl)-amine]	> 220 °C	–	–	–
Oc1ccc(-c2nc(-c3ccncc3)nc3ccccc23)c(O)c1 [E 3, 4-(2-Pyridin-4-yl-quinazolin-4-yl)-benzene-1,3-diol]	280 to 282 °C	–	–	–
Oc1ccc(-c2nc(-c3ccccc3)nc3ccccc23)c(O)c1 [E 4, 4-(2-Phenyl-quinazolin-4-yl)-benzene-1,3-diol]	178 to 180 °C	–	–	–
COc1ccc(Nc2cc(-c3ccccc3)nc3ccccc23)cc1Cl [E 5, (3-Chloro-4-methoxy-phenyl)-(2-phenyl-quinolin-4-yl)-amine]	272 to 274 °C	–	–	IC50 [1]: 2000 nM
COc1ccc(Nc2nc(-c3ccc(F)cc3)cc3ccc(C)cc23)cc1Cl [E 6, (3-Chloro-4-methoxy-phenyl)-[3-(4-fluoro-phenyl)-7-methyl-isoquinolin-1-yl]-amine]	154 to 156 °C	–	–	–
COc1ccc(Nc2nc(-c3ccc(F)cc3)cc3ccc(C)cc23)cc1F [E 7, (3-Fluoro-4-methoxy-phenyl)-[3-(4-fluoro-phenyl)-7-methyl-isoquinolin-1-yl]-amine]	163 to 165 °C	5000 nM	–	–
COc1ccc(Nc2cc(-c3ccc(F)cc3)nc3ccccc23)cc1Cl [E 8, (3-Chloro-4-methoxy-phenyl)-[2-(4-fluoro-phenyl)-quinolin-4-yl]-amine]	260 °C	2100 nM	3600 nM	inhibition at 1 µM ([3]; at 1 μM, read-out: Effect: % inhibition of smooth muscle cell proliferation): 77%
c1ccc(-c2cc(-n3ccc4ccccc43)c3ccccc3n2)cc1 [E 9, 4-Indol-1-yl-2-phenyl-quinoline]	100 to 102 °C	–	–	–
Clc1ccc2c(ccn2-c2cc(-c3ccccc3)nc3ccccc23)c1 [E 10, 4-(5-Chloro-indol-1-yl)-2-phenyl-quinoline]	148 to 150 °C	–	–	–
Fc1ccc(-c2cc(-n3ccc(C(F)(F)F)n3)c3ccccc3n2)cc1 [E 11, 2-(4-Fluoro-phenyl)-4-(3-trifluoromethyl-pyrazol-1-yl)-quinoline]	–	–	–	IC50 [3]: 1000 nM
COc1cc(Nc2cc(-c3ccc(F)cc3)nc3ccccc23)ccc1Cl [E 13, (4-Chloro-3-methoxy-phenyl)-[2-(4-fluoro-phenyl)-quinolin-4-yl]-amine]	274 to 276 °C	5000 nM	3500 nM	–
FC(F)(F)c1ccn(-c2cc(-c3ccc4c(c3)OCO4)nc3ccccc23)n1 [E 15, 2-Benzo[1,3]dioxol-5-yl-4-(3-trifluoromethyl-pyrazol-1-yl)-quinoline]	98 to 100 °C	4200 nM	5000 nM	–
CSc1ccc(-c2cc(-n3ccc(C(F)(F)F)n3)c3ccccc3n2)cc1 [E 16, 2-(4-Methylsulfanyl-phenyl)-4-(3-trifluoromethyl-pyrazol-1-yl)-quinoline]	116 to 118 °C	–	–	IC50 [3]: 1160 nM
CS(=O)(=O)c1ccc(-c2cc(-n3ccc(C(F)(F)F)n3)c3ccccc3n2)cc1 [E 17, 2-(4-Methanesulfonyl-phenyl)-4-(3-trifluoromethyl-pyrazol-1-yl)-quinoline]	194 to 196 °C	–	–	–
FC(F)(F)Oc1ccc(-c2cc(-n3ccc(C(F)(F)F)n3)c3ccccc3n2)cc1 [E 18, 2-(4-Trifluoromethoxy-phenyl)-4-(3-trifluoromethyl-pyrazol-1-yl)-quinoline]	108 to 110 °C	–	–	IC50 [3]: 2330 nM
FC(F)(F)Oc1ccc(Nc2cc(-n3ccc(C(F)(F)F)n3)c3ccccc3n2)cc1 [E 19, (4-Trifluoromethoxy-phenyl)-[4-(3-trifluoromethyl-pyrazol-1-yl)-quinolin-2-yl]-amine]	128 to 130 °C	1000 nM	1000 nM	–
FC(F)(F)c1ccn(-c2cc(N3CCOCC3)nc3ccccc23)n1 [E 20, 2-Morpholin-4-yl-4-(3-trifluoromethyl-pyrazol-1-yl)-quinoline]	118 to 120 °C	–	–	–
CNS(=O)(=O)c1ccc(Nc2cc(-n3ccc(C(F)(F)F)n3)c3ccccc3n2)cc1 [E 21, N-Methyl-4-[4-(3-trifluoromethyl-pyrazol-1-yl)-quinolin-2-ylamino]-benzenesulfonamide]	220 to 222 °C	430 nM	610 nM	–
CNC(=O)c1ccc(Nc2cc(-n3ccc(C(F)(F)F)n3)c3ccccc3n2)cc1 [E 22, N-Methyl-4-[4-(3-trifluoromethyl-pyrazol-1-yl)-quinolin-2-ylamino]-benzamide]	250 to 252 °C	750 nM	2100 nM	–
CS(=O)(=O)c1ccc(Nc2cc(-n3ccc(C(F)(F)F)n3)c3ccccc3n2)cc1 [E 23, (4-Methanesulfonyl-phenyl)-[4-(3-trifluoromethyl-pyrazol-1-yl)-quinolin-2-yl]-amine]	194 to 196 °C	9000 nM	8100 nM	–
